# Test results published in patent US20170165231A1, “TREATING EWING'S SARCOMA AND EWS-FLI1 RELATED DISORDERS” (STAR BIOTECHNOLOGY, LLC, priority 2012, published 2017).
# Where two headings read alike, the source gives them in different places.
# What was measured:
# [1] = parameters: species or system CF1 mice; details: in vivo; for HL_Lambda_z: CF1, mouse
# Excerpt: FIGS. 1A and 1B depict data of pharmacokinetic studies in CF1 mice with respect to administration of the API in the formulation shown in the Figures and via the route of administration shown in the Figures. […] In FIG. 1A group/dose=Group IV_IV_40; Rsq=0.9297; Rsq_adjusted=0.9062; HL_Lambda_z=4.7397 (hr); (5 points used in calculation); Uniform Weighting. […] In FIG. 1B group/dose=Group V_PO_40; Rsq=0.693; Rsq_adjusted=0.6163; HL_Lambda_z=2.0556 (hr); (6 points used in calculation); Uniform Weighting.
# FIGS. 2A and 2B depict data of pharmacokinetic studies in CF1 mice with respect to administration of the API in the formulation shown in the Figures and via the route of administration shown in the Figures. […] In FIG. 2A dose/route=Group III_PO_150; Rsq=0.9685; Rsq_adjusted=0.9528; HL_Lambda_z=4.2505 (hr); (4 points used in calculation); Uniform Weighting. […] In FIG. 2B dose/route=Group VI_PO_400; Rsq=0.9971; Rsq_adjusted=0.9957; HL_Lambda_z=1.9461 (hr); (4 points used in calculation); Uniform Weighting.
# Pharmacokinetics and bioavailability data was obtained from animal studies for a 50% PEG 400 plus 10% EtOH plus PBS formulation (Groups 1, 2 & 3) and a 40% PEG 400 plus 5% EtOH plus 18% TPGS plus PBS formulation (Groups 4, 5 & 6) and are shown below in Table 2.
# The API was administered to CF1 mice. Blood was drawn from the mice at predetermined time intervals. Plasma was isolated from the blood and analyzed using LCMS to determine amounts of API (ng/mL). The data shown in FIG. 1A was obtained for IV administration of 40 mg/kg of API in a formulation containing 40% PEG400, 5% EtOH and 18% TPGS (d-alpha tocopheryl PEG1000 succinate). The data shown in FIG. 1B was obtained for PO administration of 40 mg/kg of API in a formulation containing 40% PEG400, 5% EtOH and 18% TPGS (d-alpha tocopheryl PEG1000 succinate). The data shown in FIG. 2A was obtained for PO administration of 150 mg/kg of API in a formulation containing 50% PEG400 and 10% EtOH. The data shown in FIG. 2B was obtained for PO administration of 400 mg/kg of API in a formulation containing 40% PEG400, 5% EtOH and 18% TPGS (d-alpha tocopheryl PEG1000 succinate). Time 0 in FIGS. 1A, 1B, 2A and 2B represent the time of administration of the API.
# [2] = unformulated compound, background statement; cited from earlier work
# [3] = test system: TC71 Luc cells; assay: TC71Luc Ewing's sarcoma xenograft murine model; assay type: in vivo, mice; details: continuous and prolonged API administration
# Excerpt: FIG. 3 (Smooth of Grouped-TC71 Luc Xenograft Animal Model) depicts data obtained from a TC71 Luc Ewing's sarcoma xenograft murine model for mice treated with the API in an EtOH (5%), PEG400 (40%), PBS formulation. The x-axis is time post-administration of the API in days with 0 being the first day of administration of API. The y-axis is tumor volume in mm^3.
# Using a TC71Luc Ewing's sarcoma xenograft murine model, mice were subcutaneously injected with 1 million TC71 Luc cells. At a predetermined tumor volume (time=0), mice were given the first administration of API in an EtOH (5%), PEG400 (40%), PBS formulation. FIG. 3 depicts data obtained from control and for administration once per week (1×), three times per week (3×) and five times per week (5×) in each case at a dosage of 1.2 mg per mouse.
smiles,measurement,setting,value
"COc1ccc(C(=O)CC2(O)C(=O)Nc3c(Cl)ccc(Cl)c32)cc1 (stereo not shown) [compound of Formula I, 4,7-Dichloro-1,3-dihydro-3-hydroxy-3[2-(4-methoxyphenyl)-2-oxoethyl]-2H-indol-2-one]",HL_Lambda_z,"[1]; iv, 40 mg/kg",4.7397 h
same,HL_Lambda_z,"[1]; po, 40 mg/kg",2.0556 h
same,HL_Lambda_z,"[1]; po, 150 mg/kg",4.2505 h
same,HL_Lambda_z,"[1]; po, 400 mg/kg",1.9461 h
same,clearance rate from plasma,[1]; mouse,rapid
same,solubility in water,[2],highly insoluble
same,tumor abatement,[3],increased tumor abatement
